Data as given in paper PMC12010006, “Subnanomolar MAS-related G protein-coupled receptor-X2/B2 antagonists with efficacy in human mast cells and disease models” (Signal Transduction and Targeted Therapy, 2025).

Tests used:
[1] = MTT cytotoxicity assay, 1321N1 astrocytoma cells; format: cell-based; settings: human
Method: Potential cytotoxicity of 24 and its similarly potent analogs 27 and 30 was assessed in 3-(4,5-dimethylthiazol-2-yl)-2,5-diphenyl-2H-tetrazolium bromide (MTT) assays performed on human 1321N1 astrocytoma cells (Supplementary Table S3). This cell line was chosen since it is well-established for the screening of cytotoxic drugs, making it a reliable choice for assessing cytotoxicity.[46]
For the experiment, 1321N1 astrocytoma cells were seeded at a density of 1 × 10^5 cells/well in 180 µL of cell medium into transparent 96-well plates, whereby the outer wells only contained buffer (to avoid an edge effect). Cells were incubated for 24 h at 37°C, 5% CO2. Compound dilutions were prepared in DMSO. […] Subsequently, 20 µL of these compound dilutions were added to each well so that astrocytoma cells were incubated with varying concentrations of MRGPRX2 antagonists (0.01 µM–10 µM) at 37° C, 5% CO2. 5-Fluoruracil, a cytostatic drug, served as a positive control. Medium-containing DMSO in the absence of a compound served as a negative control. After 71 h, […] of MTT solution (5 mg/mL, prepared in Millipore water) was added to each well (final concentration 0.5 mg/mL) and cells were incubated again for another hour. Subsequently, the medium was removed, and cells were lyzed by adding 100 µL of DMSO per well. In order to dissolve the produced formazan dye crystals, plates were incubated for 2 min on a rotary shaker (150 rpm). Afterward, the UV absorbance at 570 nm was measured by using SoftMax® Pro5.1 Microplate Data Acquisition & Analysis Software (Molecular Devices, Sunnyvale, CA, USA). The UV absorbance at 690 nm was measured directly afterward to eliminate the background absorbance of residual medium and cell components. The values of the measured UV absorbance at 690 nm were subtracted from the values obtained by the measurement of UV absorbance at 570 nm. Three to four independent experiments were performed, each in triplicate.

C3a-induced response = test: Surface expression of CD107a and CD63 (flow cytometry), LAD2 cells activated with C3a; format: cell-based, human; settings: 30 nM; C3a 3 nM
Method: The granule-associated proteins CD107a and CD63 externalize in the process of degranulation. Their quantification by flow cytometry is a reliable marker of mast cell activation, which is often used for the diagnosis of allergies and anaphylaxis in mast cell activation tests.[49],[50] Thus, the expression of CD107a and CD63 on the cell surface was determined to confirm the effects of PSB-172656 on SP-induced MRGPRX2-mediated degranulation. […] In addition to MRPGRX2, LAD2 cells also express a GPCR that is specifically activated by the complement component C3a.[51] Both receptors can activate Gαi/o proteins to promote MC activation.[48],[52]
MC degranulation was also measured by determining the cell surface expression of CD107a (Lysosomal-Associated Membrane Protein-1, LAMP-1) and CD63 (LAMP-3) after agonist stimulation.[48] LAD2 cells were preincubated with PSB-172656 or vehicle control for 5 min at 37 °C, then activated with SP (0.3 μM) and or C3a (3 nM) for 5 min at 37 °C. After 5 min of incubation, cells were fixed with 500 µL of 4% fixation buffer (Biolegend, Catalog 420801) for 15 min at room temperature. […] Cell surface expression of CD107a and CD63 was measured from the zombie-yellow negative population by a BD LSR II flow cytometer (San Jose, CA, USA) and analyzed by FlowJo software version 10.7.2 (Tree Star Inc., Ashland, OR, USA).[48],[50]

## CCc1c(C(C)C)[nH]c2nc3cc(F)c(F)cc3n2c1=O [Compound 24, 3-ethyl-7,8-difluoro-2-isopropylbenzo[4,5]imidazo [1,2-a] pyrimidin-4(1H)-one]
[1]
  CC50 at 72 h: > 10 µM
[1]; up to 10,000 nM, read-out: Cytotoxicity % effect
  cytotoxicity at 72 h, 10000 nM: 41%
C3a-induced response
  effect on C3a-induced expression of CD107a and CD63: did not affect
